Reference: patent US11453695B2, “Nucleoside analogues and methods of use thereof” (priority 2016, dated 2022)

Tests used:
[1] = tested on: HBV/ayW1; assay: Antiviral effect against HBV in HepG-2 cells; format: cell-based; settings: Hepatitis B virus, HepG2; HBV/ayW1 in HepG-2 cells
[2] = Cell toxicity in the HBV assay; format: cell-based; settings: human, HepG-2 cells

COc1nc(Cl)nc2c1ncn2[C@@H]1O[C@H](COP(=O)(N[C@@H](C)C(=O)OC(C)C)Oc2ccccc2)C(C)(Cc2nnn[nH]2)[C@H]1F (stereo partly drawn) [LCB-2147]
EC50 [1]: 4 µM
EC90 [1]: 16 µM
CC50 [2]: > 100 µM
